Test results as given in PubChem BioAssay (NCI).
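These data come from cells grown in 96-well plates and exposed to compound for 48 hours at five concentrations. Here, GI50 denotes the concentration required for 50% inhibition of growth. TGI: concentration producing complete growth inhibition.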

Tests used:
Experiment in all cases: NCI tumour cell line growth inhibition, 48 h
[1] = test system: HT29 colon
[2] = test system: MOLT-4 leukemia
[3] = test system: OVCAR-5 ovarian
[4] = test system: NCI/ADR-RES ovarian
[5] = test system: T-47D breast
[6] = test system: LOX IMVI melanoma
[7] = test system: U251 CNS
[8] = test system: SR leukemia
[9] = test system: MDA-MB-231 breast
[10] = test system: 786-0 renal

Row | Structure (SMILES) | GI50 [1] | TGI [1] | GI50 [2] | TGI [2] | GI50 [3] | TGI [3] | GI50 [4] | TGI [4] | GI50 [5] | TGI [5] | GI50 [6] | TGI [6] | GI50 [7] | TGI [7] | TGI [8] | GI50 [9] | TGI [9] | GI50 [10] | TGI [10] | GI50 [8]
1 | CCCCCCCCCCCCCCNC(=O)Nc1ccc(Cl)c(Cl)c1 | 3.27 µM | > 100 µM | 1.6 µM | > 25.1 µM | 3.69 µM | > 100 µM | 3.02 µM | > 28.4 µM | 3.17 µM | > 30 µM | 3.23 µM | > 100 µM | 3.15 µM | > 100 µM | > 23.6 µM | 2.56 µM | 7.64 µM | 2.79 µM | > 23.4 µM | –
2 | C#Cc1ccc(-n2c(/C=C/c3ccc(O)cc3)nc3ncccc3c2=O)cc1 | 52.8 µM | > 100 µM | 7.35 µM | > 100 µM | 32.3 µM | > 100 µM | 5.27 µM | > 100 µM | 4.63 µM | > 100 µM | 5.35 µM | > 100 µM | 4.02 µM | > 100 µM | > 100 µM | 11.4 µM | > 100 µM | 4.88 µM | 50.4 µM | 3.54 µM
3 | Cc1cc(Cl)nc(N(CCNc2ccnc3cc(Cl)ccc23)Cc2ccco2)n1 | 2.11 µM | 6.83 µM | 2.09 µM | 4.65 µM | 2.72 µM | 8.11 µM | 1.74 µM | 4 µM | 1.66 µM | 3.61 µM | 1.72 µM | 3.2 µM | 1.64 µM | 3.09 µM | 4.39 µM | 1.85 µM | 3.76 µM | 1.65 µM | 3.1 µM | 1.81 µM
4 | S=C1SCN(Cc2ccccc2)CN1Cc1ccco1 | 3.17 µM | 13.9 µM | 5.91 µM | 76 µM | 9.73 µM | 21.9 µM | 17.9 µM | > 100 µM | 3.41 µM | 21.9 µM | 1.88 µM | 10.2 µM | 21.3 µM | 68.3 µM | > 100 µM | 3.17 µM | 12.3 µM | 3.5 µM | 14.4 µM | 1.87 µM
5 | CCCCCC(=O)O[C@]1(C(C)=O)CCC2C3CCC4=CC(=O)CC[C@]4(C)C3CC[C@@]21C (some centres undefined) | 2.59 µM | 7.88 µM | 2.21 µM | 5.17 µM | 5.04 µM | 22.3 µM | 2.11 µM | 8.42 µM | 3.77 µM | 25.7 µM | 1.67 µM | 3.14 µM | 1.78 µM | 4.15 µM | 6.5 µM | 2.49 µM | 7.88 µM | 2.71 µM | 8.73 µM | 2.14 µM
6 | Nc1nccc(-c2c(-c3ccc(F)cc3)nn3cc(C(F)(F)F)ccc23)n1 | > 25 µM | > 25 µM | > 25 µM | > 25 µM | > 25 µM | > 25 µM | > 25 µM | > 25 µM | > 25 µM | > 25 µM | > 25 µM | > 25 µM | > 25 µM | > 25 µM | > 25 µM | > 25 µM | > 25 µM | > 25 µM | > 25 µM | > 25 µM
7 | COCCN(Cc1ccc(F)cc1)c1ccc(CO)c(Cl)c1 | 22.4 µM | > 100 µM | 34 µM | > 78.9 µM | 0.431 µM | 2.52 µM | 27.1 µM | > 100 µM | 0.748 µM | 7.04 µM | 36.2 µM | > 100 µM | 6.33 µM | > 54.7 µM | > 100 µM | 24.1 µM | > 85.3 µM | 23.1 µM | > 82.3 µM | 47.9 µM
8 | C(=Nc1nc(SCc2ccccc2)nc2[nH]ncc12)c1cccs1 | 38.2 µM | > 100 µM | 23.6 µM | 85.9 µM | > 100 µM | > 100 µM | 49.6 µM | > 100 µM | 21.9 µM | 52.8 µM | 48.6 µM | > 100 µM | 43.6 µM | > 100 µM | 65.3 µM | 37.3 µM | > 100 µM | 79.7 µM | > 100 µM | 18.7 µM
9 | [O]=[V]([OH])([OH])[OH] | > 100 µM | > 100 µM | > 100 µM | > 100 µM | > 100 µM | > 100 µM | > 100 µM | > 100 µM | > 100 µM | > 100 µM | > 100 µM | > 100 µM | > 100 µM | > 100 µM | > 100 µM | > 100 µM | > 100 µM | > 100 µM | > 100 µM | 36.3 µM
10 | Cc1cc(Br)c(NC(=O)c2c(-c3c(Cl)cccc3Cl)noc2C)c(Br)c1 | > 100 µM | > 100 µM | > 100 µM | > 100 µM | > 100 µM | > 100 µM | > 100 µM | > 100 µM | > 100 µM | > 100 µM | > 100 µM | > 100 µM | > 100 µM | > 100 µM | > 100 µM | > 100 µM | > 100 µM | > 100 µM | > 100 µM | > 100 µM
